According to US20260297042A1, “BIARYLAMIDE DERIVATIVES AND THEIR USE AS PKMYT1 INHIBITORS” (CANCER RESEARCH TECHNOLOGY LIMITED, priority 2023, published 2026):
pIC50: −log10 of the molar value.

Biological target: T1, Human PKMYT1 (Homo sapiens, UniProt Q99640)
T1 construct: Human PKMYT1 75-362 was cloned as a TEV cleavable 6xHis fusion; 6xHis (TEV cleavable) (cleaved yes); made in house; host or cells: bacterial cells
T1 sequence (Q99640 75-362): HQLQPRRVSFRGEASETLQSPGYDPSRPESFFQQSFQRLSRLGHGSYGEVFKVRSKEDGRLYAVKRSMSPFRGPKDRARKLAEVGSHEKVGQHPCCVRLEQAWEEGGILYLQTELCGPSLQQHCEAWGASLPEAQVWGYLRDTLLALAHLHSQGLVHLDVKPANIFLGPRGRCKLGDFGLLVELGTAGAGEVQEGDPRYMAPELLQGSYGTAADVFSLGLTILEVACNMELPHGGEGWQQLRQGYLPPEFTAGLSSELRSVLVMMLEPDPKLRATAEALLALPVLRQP
Assay: PKMYT1 biochemical ADP-Glo enzymatic assay
Method: Human PKMYT1 75-362 was cloned as a TEV cleavable 6xHis fusion in bacterial cells. After purification on a Ni++HiTrap Chelating HP column, the His-tag was cleaved using TEV protease. Cleaved PKMYT1 was further purified on a Superdex 200 16/600 sizing column. The fractions containing PKMYT1 were pooled and concentrated using an ultrafiltration centrifugal protein concentrator. The purified protein was aliquoted, flash frozen in liquid nitrogen, and stored at −80° C.
PKMYT1 biochemical assay: Inhibition of PKMYT1 was assessed using the ADP-Glo™ Max Detection System from Promega. This assay detects the production of ADP from ATP by PKMYT1 via a two-step process ultimately involving the conversion of ADP to ATP with the latter converted to light in a coupled reaction with luciferase/luciferin. Inhibition of PKMYT1 by small molecule inhibitors results in a retardation of luminescence above background. The intrinsic ATPase activity of PKMYT1 was assessed according to the following protocol. Compounds were dosed into Corning white low volume 384 well assay plates using an Echo acoustic dispenser to generate 10-point curves spanning a 3-fold dilution series. DMSO (no inhibitor) control wells were prepared to benchmark the maximum and minimum signals in the presence and absence of PKMYT1, respectively. The PKMYT1 kinase domain was purified in-house, as described above, and added to the wells at a final concentration of 15 nM in a buffer of 50 mM HEPES (pH 7.5), 10 mM MgCl2, 1 mM EGTA, 0.01% Brij-35, 1% DMSO. 500 µM ATP was added to start the reaction with the final assay volume being 4 μl. The plate was then incubated for 60 minutes at 26° C. before the addition of 4 μl of ADP-Glo Reagent to stop the reaction and deplete the unconsumed ATP. Following a further 60 minute incubation the assay signal was developed by the addition of 8 μl ADP-Glo Max Detection Reagent. After 60 minutes the luminescence signal was read on a PHERAStar FS microplate reader (BMG Labtech).
Data analysis: Data was captured and analysed within the Dotmatics Studies software module where dose response curves were generated and IC50 values determined. Acceptance and verification of data followed strict in-house business rules which are summarised as follows. […] Technical and biological replicates of each compound are routinely tested and replicate IC50 values must fall within 3-fold of each other with dose response curves showing ‘goodness of fit’ r2 values >0.9. Failure to meet any of these defined criteria result in rejection of data.

[1] = ADP-Glo, 15 nM PKMYT1 kinase domain, 500 µM ATP, 60 minutes at 26° C., banded
[2] = PKMYT1 kinase domain 15 nM, ADP-Glo, banded values
[3] = PKMYT1 biochemical ADP-Glo enzymatic assay, Comparison Data 1
[4] = PKMYT1 biochemical ADP-Glo enzymatic assay, Comparison Data 2

pIC50 [1] | SMILES | further results
4.96 to 6.00 | Cc1ccc(O)c(C)c1NC(=O)c1cnc(Nc2ccn(CCNC(=O)OC(C)(C)C)n2)s1 [BAA-020, tert-butyl N-[2-[3-[5-[(3-hydroxy-2,6-dimethyl-phenyl)carbamoyl]thiazol-2-yl]amino]pyrazol-1-ylethyl]carbamate] | –
4.96 to 6.00 | Cc1ccc(O)c(C)c1NC(=O)c1cnc(Nc2cn[nH]c2)s1 [BAA-026, N-(3-hydroxy-2,6-dimethyl-phenyl)-2-(1H-pyrazol-4-ylamino)thiazole-5-carboxamide] | –
4.96 to 6.00 | Cc1ccc(O)c(C)c1NC(=O)c1cnc(Nc2ccn([C@H]3CCCN(C(=O)OC(C)(C)C)C3)n2)s1 [BAA-039] | –
6.00 to 7.30 | Cc1ccc(O)c(C)c1NC(=O)c1cnc(Nc2ccn([C@H]3CCOC3)n2)s1 [BAA-041] | –
6.00 to 7.30 | CCOC(=O)c1coc(Nc2ncc(C(=O)Nc3c(C)ccc(O)c3C)s2)n1 [BAA-045] | –
4.96 to 6.00 | Cc1ccc(O)c(C)c1NC(=O)c1cnc(N[C@H]2CCN(C(=O)OC(C)(C)C)C2)s1 [BAA-049, tert-butyl (3S)-3-[5-[(3-hydroxy-2,6-dimethyl-phenyl)carbamoyl]thiazol-2-ylamino]pyrrolidine-1-carboxylate] | –
4.96 to 6.00 | Cc1ccc(O)c(C)c1NC(=O)c1cnc(N[C@@H]2CCN(C(=O)OC(C)(C)C)C2)s1 [BAA-050] | –
4.96 to 6.00 | Cc1ccc(O)c(C)c1NC(=O)c1cnc(Nc2cc(CN3CCN(CCO)CC3)n(C)n2)s1 [BAA-052, N-(3-Hydroxy-2.6-dimethyl-phenyl)-2-[[5-[[4-(2-hydroxyethyl)piperazin-4-ium-1-yl]methyl]-1-methyl-pyrazol-3-yl]amino]thiazole-5-carboxamide] | –
4.96 to 6.00 | Cc1ccc(O)c(C)c1NC(=O)c1cnc(NC2CCCCC2)s1 [BAA-064, 2-(cyclohexylamino)-N-(3-hydroxy-2,6-dimethyl-phenyl)thiazole-5-carboxamide] | –
4.96 to 6.00 | Cc1ccc(O)c(C)c1NC(=O)c1cnc(NCCCO)s1 [BAA-069, N-(3-hydroxy-2,6-dimethyl-phenyl)-2-(3-hydroxypropylamino)thiazole-5-carboxamide] | –
4.96 to 6.00 | Cc1ccc(O)c(C)c1NC(=O)c1cnc(NCC(N)=O)s1 [BAA-070, 2-[(2-amino-2-oxo-ethyl)amino]-N-(3-hydroxy-2,6-dimethyl-phenyl)thiazole-5-carboxamide] | –
4.96 to 6.00 | Cc1ccc(O)c(C)c1NC(=O)c1cnc(NCCC(C)(C)C)s1 [BAA-074, 2-(3,3-dimethylbutylamino)-N-(3-hydroxy-2,6-dimethyl-phenyl)thiazole-5-carboxamide] | –
4.96 to 6.00 | Cc1ccc(O)c(C)c1NC(=O)c1cnc(NCCc2ccc(C(F)(F)F)cc2)s1 [BAA-075, N-(3-hydroxy-2,6-dimethyl-phenyl)-2-[2-[4-(trifluoromethyl)phenyl]ethylamino]thiazole-5-carboxamide] | –
6.00 to 7.30 | Cc1ccc(O)c(C)c1NC(=O)c1cnc(Nc2ccn(CC(=O)NC[C@H](C)O)n2)s1 [BAA-174] | –
4.96 to 6.00 | Cc1ccc(O)c(C)c1NC(=O)c1cnc(NCC2CCN(C(=O)CN3CCCC3)CC2)s1 [BAA-211, N-(3-Hydroxy-2.6-dimethyl-phenyl)-2-[[1-(2-pyrrolidin-1-ylacetyl)-4-piperidyl]methylamino]thiazole-5-carboxamide] | –
4.96 to 6.00 | Cc1ccc(O)c(C)c1NC(=O)c1cnc(NCC2CCN(CC(=O)N(C)C)CC2)s1 [BAA-216, 2-[[1-[2-(dimethylamino)-2-oxo-ethyl]-4-piperidyl]methylamino]-N-(3-hydroxy-2,6-dimethyl-phenyl)thiazole-5-carboxamide] | –
6.00 to 7.30 | Cc1ccc(O)c(C)c1NC(=O)c1cnc(NCC2CCN(C(=O)CN3CCOCC3)CC2)s1 [BAA-217, N-(3-hydroxy-2,6-dimethyl-phenyl)-2-[[1-(2-morpholinoacetyl)-4-piperidyl]methylamino]thiazole-5-carboxamide] | –
4.96 to 6.00 | Cc1ccc(O)c(C)c1NC(=O)c1cnc(Nc2ccc(-c3ccc(F)cc3)cn2)s1 [BAA-291, 2-((5-(4-fluorophenyl)pyridin-2-yl)amino)-N-(3-hydroxy-2,6-dimethylphenyl)thiazole-5-carboxamide] | –
4.96 to 6.00 | Cc1cc(-c2ccc(F)cc2)cnc1Nc1ncc(C(=O)Nc2c(C)ccc(O)c2C)s1 [BAA-292, 2-((5-(4-fluorophenyl)-3-methylpyridin-2-yl)amino)-N-(3-hydroxy-2,6-dimethylphenyl)thiazole-5-carboxamide] | –
4.96 to 6.00 | CCN(c1ccc(F)cc1)c1ccc(Nc2ncc(C(=O)Nc3c(C)ccc(O)c3C)s2)nc1 [BAA-311, 2-((5-(ethyl(4-fluorophenyl)amino)pyridin-2-yl)amino)-N-(3-hydroxy-2,6-dimethylphenyl)thiazole-5-carboxamide] | –
4.96 to 6.00 | CCN(c1ccc(F)cc1)c1cccc(Nc2ncc(C(=O)Nc3c(C)ccc(O)c3C)s2)n1 [BAA-312, 2-((6-(ethyl(4-fluorophenyl)amino)pyridin-2-yl)amino)-N-(3-hydroxy-2,6-dimethylphenyl)thiazole-5-carboxamide] | –
– | Cc1ccc(N2CCN(C3CC3)CC2)nc1Nc1ncc(C(=O)Nc2c(C)ccc(O)c2C)s1 [BAA-433, 2-((6-(4-cyclopropylpiperazin-1-yl)-3-methylpyridin-2-yl)amino)-N-(3-hydroxy-2,6-dimethylphenyl)thiazole-5-carboxamide] | pIC50 [2]: > 7.30
– | Cc1cc(C)c(NC(=O)c2cnc(Nc3ccn(C)n3)s2)c(C)c1O [BAA-517, N-(3-Hydroxy-2,4,6-trimethylphenyl)-2-((1-methyl-1H-pyrazol-3-yl)amino)thiazole-5-carboxamide] | pIC50 [2]: 4.96 to 6.00
– | Cc1ccc(O)c(C)c1NC(=O)c1cnc(Nc2ccccc2C(C)C)s1 [BAA-525, N-(3-hydroxy-2,6-dimethylphenyl)-2-((2-isopropylphenyl)amino)thiazole-5-carboxamide] | pIC50 [2]: 4.96 to 6.00
– | Cc1cc(Cl)c(O)c(C)c1NC(=O)c1cnc(Nc2ccn(C)n2)s1 [BAA-547, N-(4-chloro-3-hydroxy-2,6-dimethylphenyl)-2-((1-methyl-1H-pyrazol-3-yl)amino)thiazole-5-carboxamide] | pIC50 [2]: 4.96 to 6.00
– | CCN(CC)C(=O)Cn1nc(C(F)(F)F)cc1Nc1ncc(C(=O)Nc2c(C)ccc(O)c2C)s1 [BAA-561, 2-((1-(2-(diethylamino)-2-oxoethyl)-3-(trifluoromethyl)-1H-pyrazol-5-yl)amino)-N-(3-hydroxy-2,6-dimethylphenyl)thiazole-5-carboxamide] | pIC50 [2]: 4.96 to 6.00
– | Cc1ccc(O)cc1NC(=O)c1cnc(N)s1 [REF-001, 2-Amino-N-(5-hydroxy-2-methyl-phenyl)thiazole-5-carboxamide, reference compound] | pIC50 [3]: 4.27
– | Cc1c(O)cccc1NC(=O)c1cnc(N)s1 [REF-002, 2-Amino-N-(3-hydroxy-2-methyl-phenyl)thiazole-5-carboxamide, reference compound] | pIC50 [3]: 4.57
– | Cc1cccc(C)c1NC(=O)c1cnc(Nc2ccn(C)n2)s1 [REF-003, N-(2,6-Dimethylphenyl)-2-[(1-methylpyrazol-3-yl)amino]thiazole-5-carboxamide, reference compound] | pIC50 [4]: 4.27
– | COc1ccc(C)c(NC(=O)c2cnc(Nc3ccn(C)n3)s2)c1C [REF-004, N-(3-Methoxy-2,6-dimethyl-phenyl)-2-[(1-methylpyrazol-3-yl)amino]thiazole-5-carboxamide, reference compound] | pIC50 [4]: < 4.00
